{"source": "patent US20160193240A1", "about": "“Ulmoside-A: Useful For Prevention Or Cure Of Metabolic Diseases” (COUNCIL OF SCIENTIFIC & INDUSTRIAL RESEARCH, priority 2013, published 2016)", "key": {"AdipoRs": {"system": "AdipoRs", "assay": "Competitive radio-ligand binding assay with 125I-adiponectin on C2C12 myotubes", "design": "species or system mouse", "conditions": "10^-11 M to 10^-6 M unlabeled ULMA, 12 hours, 4° C.", "method": "C. ULMA competes with ^125I-globular adiponectin (gAd) for binding to AdipoRs. C2C12 myotubes in 12 well plates were incubated with 2 μl of 10 uCi/ml ^125I-adiponectin (this amount gives 50% binding to the cells) in ice-cold PBS and 0.1% bovine serum albumin for 12 h in presence or absence of different doses of unlabeled ULMA (10^−11M, 10^−10 M, 10^−9 M, 10^−8 M, 10^−7M, 10^−6M) at 4° C. The cells were then washed 20 times in PBS and then lysed. 5 μl of the lysate was used for protein estimation using standard Bradford assay and rest of the lysate was used for measuring radioactivity in a gamma-counter (Cole Palmer). The count per minute was normalized with protein concentration and plotted as % binding compared to wells treated with vehicle only (0.1% vol/vol DMSO). Data represents mean±SEM from three experiments performed in triplicates.\nCompetitive Radio-Ligand Binding Assay\nFurther validation of AdipoR-ULMA interaction was obtained using a competitive radio-ligand binding assay. […] 5 μl of the lysate was used for protein estimation using standard Bradford assay and rest of the lysate was used for measuring radioactivity in a gamma-counter (Cole Palmer). […]"}, "C2C12 myotubes": {"system": "C2C12 myotubes", "assay": "Western blot of PGC-1α, PPAR and GLUT4 in C2C12 myotubes", "type": "cell-based, mouse", "conditions": "10 nM, 24 or 48 hours", "method": "B. ULMA induces protein levels of PGC-1α, PPARα and Glut4. C2C12 myotubes in 10 cm dish were treated with vehicle (DMSO) or 10 nM ULMA in DMSO for 24 or 48 h followed by western blotting with indicated antibodies. Data is representative of three independent experiments showing identical pattern.\nAdiponectin enhances transcription of genes regulating fatty acid transport, fatty acid-oxidation and mitochondrial uncoupling proteins in skeletal muscle and myotubes (T. Kadowaki, T. Yamauchi, N. Kubota, K. Hara, K. Ueki, K. Tobe. J Clin Invest. 116(7): 1784-92. 2006; S. Dridi, M. Taouis. Journal of Nutritional Biochemistry 20 (2009): 831-839. 2009; M. Iwabu, T. Yamauchi, M. Okada-Iwabu, K. Sato, T. Nakagawa, M. Funata, M. Yamaguchi, S. Namiki, R. Nakayama, M. Tabata, H. Ogata, N. Kubota, I. Takamoto, Y. K. Hayashi, N. Yamauchi, H. Waki, M. Fukayama, I. Nishino, K. Tokuyama, K. Ueki, Y. Oike, S. Ishii, K. Hirose, T. Shimizu, K. Touhara, T. Kadowaki. Nature; 464(7293):1313-1319. 2010). The ability of ULMA to influence expression of these genes were checked in c2c12 myotubes. C2C12 myotubes in 6 well plates were treated with 10 nM ULMA or vehicle (DMSO) for 12 hours or 24 hours. Following treatment, the cells were washed with ice-cold PBS and RNA was extracted using Trizol (Ambion) according to manufacturer's instructions. The RNAs were quantitated using a spectrophotometer (nanophotometer; Implen GMBH) and 1 μg RNA was used to prepare cDNA using a cDNA synthesis kit (Applied Biosystems). cDNAs were then used for quantitative real-time PCR for indicated genes (FIG. 3A) using Veriquest SYBR green QRT-PCR mastermix (US Biologicals) and a Roche lightcycler 480 thermal cycler (Roche Diagnostics). Beta-actin was used as normalizing control. The relative mRNA level was quantitated using ddCT method. […] Adiponectin is also known to induce muscle and adipose glucose transporter 4 (GLUT4) expressions; and the ability of ULMA to induce the expression of GLUT4, PPAR and PGC-1α was investigated by western blotting. […]"}, "wistar rats [1]": {"system": "wistar rats", "assay": "Dexamethasone induced loss of body weight and death in rats", "conditions": "for Final body weight (g) / Survival/group (%): 2 weeks", "method": "All animal experiments were conducted in accordance with current legislation on animal experiments [Institutional Animal Ethical Committee (IAEC)] at C.D.R.I. In all animal experiments, rats were individually housed at 21° C., in 12-h light:12-h dark cycles. All animals had access to normal chow diet and water ad libitum.\nFood intake was measured daily and the rats were weighed each week. The rats were fasted overnight (O/N) on day 14th and on day 15th oral glucose tolerance test was performed. Following oral glucose tolerance test (OGTT), rats were kept with food and water ad libitum for one day. On day 16th, rats were fasted again O/N and then euthanized. At autopsy, from 5 animals/group, tissues were collected and snap frozen in liquid nitrogen. Blood was collected from cardiac punctures. Plasma was separated from whole blood by centrifugation at 3000 rpm for 20 min immediately after collection of blood and stored at −80° C. until further analysis. […] (quadriceps) skeletal muscles were processed for RNA and protein extraction, followed by quantitative real-time PCR (QRT-PCR) analysis. Two animals from each group were used for photography post autopsy."}, "wistar rats [2]": {"system": "wistar rats", "assay": "Dexamethasone mediated cardiac hypertrophy in rats (heart weight/body weight ratio)", "type": "in vivo, rat", "method": "Following 15 d treatment with indicated compounds or vehicle, animals were euthanized and heart weight and body weight were measured and heart weight/body weight ratio were calculated and plotted. Data represents mean+/−SEM. N=6. *p<0.05 as determined by student's t-test.\nBlood was collected from cardiac punctures.\nTherefore, the heart weight/body weight ratio was measured in these rats (described in Example 6A-C)."}, "wistar rats [3]": {"system": "wistar rats", "assay": "Dexamethasone-mediated imbalance in serum Na, K level in rats", "type": "in vivo, rat", "conditions": "Dex + ULMA, 14 days", "quoted_text": "Food intake was measured daily and the rats were weighed each week. The rats were fasted overnight (O/N) on day 14th and on day 15th oral glucose tolerance test was performed. Following oral glucose tolerance test (OGTT), rats were kept with food and water ad libitum for one day. On day 16th, rats were fasted again O/N and then euthanized. At autopsy, from 5 animals/group, tissues were collected and snap frozen in liquid nitrogen. Blood was collected from cardiac punctures. Plasma was separated from whole blood by centrifugation at 3000 rpm for 20 min immediately after collection of blood and stored at −80° C. until further analysis. Forelimb (quadriceps) skeletal muscles were processed for RNA and protein extraction, followed by quantitative real-time PCR (QRT-PCR) analysis. Two animals from each group were used for photography post autopsy."}}, "note": "Marks after values point to notes of the source that are not given here.", "data": [{"molecule": "O=C1c2c(cc(O)c([C@@H]3O[C@H](CO)[C@@H](O)[C@H](O)[C@H]3O)c2O)O[C@@H](c2ccc(O)c(O)c2)[C@@H]1O", "note": "[ULMA, (2S,3S)-(+)-3′,4′,5,7-tetrahydroxydihydroflavonol-6-C-β-D-glucopyranoside]", "values": [{"measurement": "displacement of 125I-adiponectin binding by cold ULMA", "setting": "AdipoRs", "value": "dose-dependently replaced 125I-adiponectin binding"}, {"measurement": "GLUT4 protein level", "setting": "C2C12 myotubes", "value": "induced protein levels"}, {"measurement": "PGC-1α protein level", "setting": "C2C12 myotubes", "value": "induced protein levels"}, {"measurement": "PPAR protein level", "setting": "C2C12 myotubes", "value": "induced protein levels"}, {"measurement": "Final body weight (g)", "setting": "wistar rats [1]; Dex + ULMA-1 mg", "value": "176.5 ± 5.9^c g"}, {"measurement": "Survival/group (%)", "setting": "wistar rats [1]; Dex + ULMA-1 mg", "value": 73.3, "unit": "%"}, {"measurement": "Final body weight (g)", "setting": "wistar rats [1]; Dex + ULMA-5 mg", "value": "192.7 ± 3.8^b,c g"}, {"measurement": "Survival/group (%)", "setting": "wistar rats [1]; Dex + ULMA-5 mg", "value": 100, "unit": "%"}, {"measurement": "change in body weight in control animals", "setting": "wistar rats [1]; rat, in vivo", "value": "did not cause any significant change"}, {"measurement": "Dex-caused increase of heart/body weight ratio", "setting": "wistar rats [2]; Dex + ULMA", "value": "significantly alleviated this increase"}, {"measurement": "heart weight/body weight ratio in control animals", "setting": "wistar rats [2]; ULMA alone", "value": "did not change"}, {"measurement": "Na (mmol/l)", "setting": "wistar rats [3]", "value": "124 ± 3.7^a mmol/l"}, {"measurement": "serum K", "setting": "wistar rats [3]", "value": "3.93 ± 0.08", "unit": "mM"}]}]}
